Source: ChEMBL document CHEMBL1201862, “PubChem BioAssay data set” (2004)
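Tested at 5 concentrations; 48 h exposure; 96-well plates; endpoints linearly interpolated, else capped at highest concentration. GI50 marks 50% less growth.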 Calls of active or inactive are those of the source. No stated cut-off is given here; in the data, active = GI50 up to about 1.1 µM and inactive = higher.

Columns and labels:
Assay in all cases: growth of human tumour cells (NCI), 48 h
[1] = system: UACC-257
[2] = system: Malme-3M
[3] = system: MDA-MB-435
[4] = system: IGROV-1
[5] = system: SN12C
[6] = system: SW-620
[7] = system: OVCAR-4
[8] = system: OVCAR-8
[9] = system: OVCAR-5
[10] = system: MDA-N
[11] = system: K562
[12] = system: HT-29
[13] = system: KM12
[14] = system: MOLT-4
[15] = system: SR
[16] = system: NCI-H23
[17] = system: SK-MEL-28
[18] = system: SF-295
[19] = system: Hs-578T
[20] = system: SF-539

| SMILES | GI50 [1] | GI50 [2] | GI50 [3] | GI50 [4] | GI50 [5] | GI50 [6] | GI50 [7] | GI50 [8] | GI50 [9] | GI50 [10] | GI50 [11] | GI50 [12] | GI50 [13] | GI50 [14] | GI50 [15] | GI50 [16] | GI50 [17] | GI50 [18] | GI50 [19] | GI50 [20] |
| --- | --- | --- | --- | --- | --- | --- | --- | --- | --- | --- | --- | --- | --- | --- | --- | --- | --- | --- | --- | --- |
| Oc1c(N2CCOCC2)cc(-c2cc(N3CCOCC3)c(O)c3ccccc23)c2ccccc12 | 2.29 µM (inactive) | 0.486 µM (active) | 1.38 µM (inactive) | 2.4 µM (inactive) | 1.58 µM (inactive) | 2.04 µM (inactive) | 1.93 µM (inactive) | 1.6 µM (inactive) | 2.86 µM (inactive) | 0.389 µM (active) | 1.88 µM (inactive) | 2.16 µM (inactive) | 6.05 µM (inactive) | 1.71 µM (inactive) | 0.659 µM (active) | 2.28 µM (inactive) | 1.75 µM (inactive) | 1.71 µM (inactive) | 3.44 µM (inactive) | 2.09 µM (inactive) |
| Clc1ccc(/C=N/C23CC4CC(CC(C4)C2)C3)c(Cl)c1 | > 10 µM (inactive) | > 10 µM (inactive) | > 10 µM (inactive) | > 10 µM (inactive) | > 10 µM (inactive) | > 10 µM (inactive) | > 10 µM (inactive) | > 10 µM (inactive) | > 10 µM (inactive) | > 10 µM (inactive) | > 10 µM (inactive) | > 10 µM (inactive) | > 10 µM (inactive) | > 10 µM (inactive) | 3.5 µM (inactive) | > 10 µM (inactive) | > 10 µM (inactive) | > 10 µM (inactive) | > 10 µM (inactive) | > 10 µM (inactive) |
| CCOC(=O)C(NC(C)=O)(Nc1ccc(S(N)(=O)=O)cc1)C(F)(F)F (stereo not given) | > 100 µM (inactive) | > 100 µM (inactive) | > 100 µM (inactive) | > 100 µM (inactive) | > 100 µM (inactive) | > 100 µM (inactive) | > 100 µM (inactive) | > 100 µM (inactive) | > 100 µM (inactive) | > 100 µM (inactive) | > 100 µM (inactive) | > 100 µM (inactive) | 3.58 µM (inactive) | > 100 µM (inactive) | > 100 µM (inactive) | > 100 µM (inactive) | > 100 µM (inactive) | > 100 µM (inactive) | > 100 µM (inactive) | > 100 µM (inactive) |
| C/C=C/C=C\C=C/C(O)C(C)C(CCC(C)C1OC(=O)C=CC1C)OP(=O)(O)O (stereo not given) | 1.15 µM (inactive) | 0.232 µM (active) | 0.133 µM (active) | 0.275 µM (active) | 0.323 µM (active) | 0.479 µM (active) | 1.23 µM (inactive) | 0.451 µM (active) | 0.263 µM (active) | 0.296 µM (active) | 0.183 µM (active) | 0.376 µM (active) | 0.318 µM (active) | 0.275 µM (active) | 0.176 µM (active) | 1.52 µM (inactive) | 0.804 µM (active) | 0.287 µM (active) | 1.42 µM (inactive) | 0.461 µM (active) |
| Cc1ccc(C(=O)C2C=C(c3ccc(C)cc3)SC3C=CCC32)cc1 (stereo not given) | 21.7 µM (inactive) | 16.3 µM (inactive) | 14.4 µM (inactive) | 19.6 µM (inactive) | 17.2 µM (inactive) | 15.8 µM (inactive) | 30.5 µM (inactive) | 17 µM (inactive) | 18.4 µM (inactive) | 14.8 µM (inactive) | 27.7 µM (inactive) | 21.4 µM (inactive) | 15 µM (inactive) | 12.1 µM (inactive) | 12.6 µM (inactive) | 24.2 µM (inactive) | 17.4 µM (inactive) | 19.1 µM (inactive) | 26.1 µM (inactive) | 17.9 µM (inactive) |
